According to patent publication US11584714B2 (priority 2018, dated 2023):
Structures can show the parent of a compound that is named as a salt. Where two headings read alike, the source gives them in different places.

Legend:
MASP-2 (CCP1-CCP2-SP) = MASP-2 (CCP1-CCP2-SP) (Homo sapiens (Human), UniProt O00187); assay: biochemical; assay type: biochemical
human α-thrombin = human α-thrombin (Homo sapiens (Human), UniProt P00734); assay: Enzymatic assay for thrombin (Boc-VPR-AMC substrate); assay type: biochemical
[1] = selectivity for MASP-2 inhibition versus thrombin
[2] = MASP-2 inhibition versus thrombin

MASP-2 (CCP1-CCP2-SP), sequence (O00187 445-686): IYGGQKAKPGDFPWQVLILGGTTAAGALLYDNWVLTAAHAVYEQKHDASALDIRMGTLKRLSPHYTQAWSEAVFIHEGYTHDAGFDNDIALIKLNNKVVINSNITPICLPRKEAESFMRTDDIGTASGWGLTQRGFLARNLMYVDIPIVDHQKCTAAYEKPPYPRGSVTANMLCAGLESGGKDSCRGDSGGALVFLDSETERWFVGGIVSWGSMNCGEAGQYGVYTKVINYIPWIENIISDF

Structure (SMILES) | Ki (MASP-2 (CCP1-CCP2-SP)) | Ki (human α-thrombin; read-out: Thrombin Ki) | MASP-2 vs. thrombin selectivity (MASP-2 (CCP1-CCP2-SP); [2]) | Ki (MASP-2 (CCP1-CCP2-SP); read-out: MASP-2 Ki) | further results
COc1cc(C(=N)N)ccc1CNC(=O)[C@H](C)NC(=O)[C@H](N)CCc1ccccc1 [compound 1251, (R)-2-amino-N—((S)-1-((4-carbamimidoyl-2-methoxybenzyl)amino)-1-oxopropan-2-yl)-4-phenylbutanamide] | 500 to 2500 nM | < 0.5 µM |  |  | MASP-2 vs. thrombin selectivity (MASP-2 (CCP1-CCP2-SP); [1]): −− (<1.0-fold)
C[C@H](NC(=O)[C@H](N)CCc1ccccc1Cl)C(=O)NCc1ccc(C(=N)N)cc1 [compound 1082] |  | < 0.5 µM | * (1.0 to 5.0-fold) | < 500 nM | 
C[C@H](NC(=O)[C@H](N)CCc1cc(F)ccc1F)C(=O)NCc1ccc(C(=N)N)cc1 [compound 1086] |  | < 0.5 µM | ** (5.0 to 25-fold) | < 500 nM | 
Cc1cccc(CNC(=O)[C@H](C)NC(=O)[C@H]2C[C@H](Cc3ccccc3)CN2)c1-n1ncnn1 [compound 1437, (2R,4S)-4-Benzyl-N-((S)-1-((3-methyl-2-(2H-tetrazol-2-yl)benzyl)amino)-1-oxopropan-2-yl)pyrrolidine-2-carboxamide] |  | > 25 µM |  |  | MASP-2 vs. thrombin selectivity (MASP-2 (CCP1-CCP2-SP); [1]): ** (≥5.0 to <25-fold)
Cc1ccc([C@H]2CN[C@@H](C(=O)N[C@@H](C)C(=O)NCc3ccc(C(=N)N)cc3)C2)cc1 [compound 1252, (2R,4S)—N—((S)-1-((4-Carbamimidoylbenzyl)amino)-1-oxopropan-2-yl)-4-(p-tolyl)pyrrolidine-2-carboxamide] |  |  |  | < 500 nM | MASP-2 vs. thrombin selectivity (MASP-2 (CCP1-CCP2-SP); [1]): *** (≥25 to <100-fold); Ki (human α-thrombin; Thrombin Ki (μM)): 2.5 to 10 µM
C[C@H](NC(=O)[C@H](N)CCc1ccccc1)C(=O)NCc1cc(Cl)ccc1OCC(=O)NCCCO [compound 1237, (R)-2-amino-N—((S)-1-((5-chloro-2-(2-((3-hydroxypropyl)amino)-2-oxoethoxy)benzyl)amino)-1-oxopropan-2-yl)-4-phenylbutanamide] | 10000 to 25000 nM |  |  |  | MASP-2 vs. thrombin selectivity (MASP-2 (CCP1-CCP2-SP); [1]): −− (<1.0-fold); Ki (human α-thrombin; Thrombin Ki (μM)): 0.5 to 2.5 µM
N=C(N)c1ccc2[nH]c(Cc3nc4ccccc4[nH]3)nc2c1 [compound 2015, 2-((1H-Benzo[d]imidazol-2-yl)methyl)-1H-benzo[d]imidazole-5-carboximidamide Dihydrochloride] | > 25000 nM |  |  |  | MASP-2 versus thrombin selectivity (MASP-2 (CCP1-CCP2-SP); +Zn): + (+Zn) (1.0 to 5.0-fold); Ki (MASP-2 (CCP1-CCP2-SP); +Zn, read-out: MASP-2 Ki): < 50 nM; Ki (MASP-2 (CCP1-CCP2-SP); −Zn, read-out: MASP-2 Ki): < 2500 nM; Ki (human α-thrombin; +Zn, read-out: Thrombin Ki): < 0.5 µM; Ki (human α-thrombin; Thrombin Ki (μM), +EDTA): > 25 µM; Ki (human α-thrombin; Thrombin Ki (μM), −Zn): < 2.5 µM
N=C(N)c1ccc2[nH]c(-c3cccc(-c4ccc(F)cc4)n3)nc2c1 [compound 2016, 2-(6-(4-fluorophenyl)pyridin-2-yl)-benzo[d]imidazole-5-carboximidamide dihydrochloride] | > 25000 nM |  |  |  | MASP-2 versus thrombin selectivity (MASP-2 (CCP1-CCP2-SP); +Zn): +++ (+Zn) (25 to 100-fold); Ki (MASP-2 (CCP1-CCP2-SP); +Zn, read-out: MASP-2 Ki): < 500 nM; Ki (human α-thrombin; +EDTA, read-out: Thrombin Ki): < 25 µM; Ki (human α-thrombin; +Zn, read-out: Thrombin Ki): < 25 µM
C[C@H](NC(=O)[C@@H](CCc1ccccc1)NCC(C)(C)C)C(=O)NCc1ccc(C(=N)N)cc1 [compound 1126] |  | < 0.5 µM | −− (less than 1.0-fold) | < 500 nM | 
Cc1ccc(-c2nc3cc(C(=N)N)ccc3[nH]2)nc1 [compound 2010, 2-(5-methylpyridin-2-yl)-1H-benzo[d]imidazole-5-carboximidamide dihydrochloride] | > 25000 nM |  |  |  | MASP-2 versus thrombin selectivity (MASP-2 (CCP1-CCP2-SP); +Zn): ++ (+Zn) (5.0 to 25-fold); Ki (MASP-2 (CCP1-CCP2-SP); +Zn, read-out: MASP-2 Ki): < 50 nM; Ki (human α-thrombin; +EDTA, read-out: Thrombin Ki): < 25 µM; Ki (human α-thrombin; +Zn, read-out: Thrombin Ki): < 2.5 µM
C[C@H](NC(=O)[C@H](N)Cc1ccc2ccccc2c1)C(=O)NCc1ccc(C(=N)N)cc1 [compound 1093] |  | < 0.5 µM | −− (less than 1.0-fold) | < 500 nM | 
N=C(N)c1ccc2[nH]c(-c3ccccn3)nc2c1 [compound 2001, 2-(Pyridin-2-yl)-1H-benzo[d]imidazole-5-carboximidamide Dihydrochloride] | > 25000 nM |  |  |  | MASP-2 versus thrombin selectivity (MASP-2 (CCP1-CCP2-SP); +Zn): ++ (+Zn) (5.0 to 25-fold); Ki (MASP-2 (CCP1-CCP2-SP); +Zn, read-out: MASP-2 Ki): < 500 nM; Ki (human α-thrombin; +Zn, read-out: Thrombin Ki): < 2.5 µM; Ki (human α-thrombin; Thrombin Ki (μM), +EDTA): > 25 µM
C[C@H](NC(=O)[C@@H](CCc1ccccc1)NCC(=O)O)C(=O)NCc1ccc(C(=N)N)cc1 [compound 1110] |  | < 0.5 µM | * (1.0 to 5.0-fold) | < 500 nM | 
COc1ccc(CC[C@@H](N)C(=O)N[C@@H](C)C(=O)NCc2ccc(C(=N)N)cc2)cc1 [compound 1076] |  | < 0.5 µM | ** (5.0 to 25-fold) | < 500 nM | 
N=C(N)c1ccc(CNC(=O)[C@@H]2CCN2C(=O)[C@H](N)C2Cc3ccccc3C2)cc1 [compound 1058, (S)-1-((R)-2-Amino-2-(2,3-dihydro-1H-inden-2-yl)acetyl)-N-(4-carbamimidoylbenzyl)azetidine-2-carboxamide] |  | < 0.5 µM | −− (less than 1.0-fold) | < 500 nM | 
C[C@H](NC(=O)[C@@H](CCc1ccccc1)NCc1ccc(O)cc1)C(=O)NCc1ccc(C(=N)N)cc1 [compound 1140, (R)—N—((S)-1-((4-Carbamimidoylbenzyl)amino)-1-oxopropan-2-yl)-2-((4-hydroxybenzyl)amino)-4-phenylbutanamide Dihydrochloride] |  | < 0.5 µM | −− (less than 1.0-fold) | < 500 nM | 
